Assay [1] concerns the target T1, human NMUR1 receptor (Homo sapiens, UniProt Q9HB89).
T1 construct: expressed in transfected cells; host or cells: CHO-K1
T1 sequence (Q9HB89 1-426): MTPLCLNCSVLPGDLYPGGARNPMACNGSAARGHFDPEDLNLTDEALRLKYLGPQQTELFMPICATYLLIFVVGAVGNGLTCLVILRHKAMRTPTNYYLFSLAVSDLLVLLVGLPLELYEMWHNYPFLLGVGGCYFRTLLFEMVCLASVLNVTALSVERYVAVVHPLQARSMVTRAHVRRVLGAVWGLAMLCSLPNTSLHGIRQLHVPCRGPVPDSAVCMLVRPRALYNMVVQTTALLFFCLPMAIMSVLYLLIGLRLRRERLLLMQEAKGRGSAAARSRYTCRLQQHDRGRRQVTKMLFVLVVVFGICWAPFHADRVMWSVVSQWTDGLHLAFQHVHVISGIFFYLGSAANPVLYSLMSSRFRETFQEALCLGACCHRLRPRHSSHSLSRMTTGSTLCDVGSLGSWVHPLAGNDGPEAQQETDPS
In words: IP1 Gq HTRF assay, activation of human NMUR1 in buffer. The conditions noted are these: CHO-K1 cells expressing human NMUR1, stimulation buffer with 0.1% BSA; read-out: EC50 (hNMUR1) buffer. It is filed as cell-based. Put shortly:
(§1)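 CHO-K1 cells stably expressing human NMUR1 or NMUR2, seeded 24 h before assay, stimulated with peptide agonists (8-point dose-response, 1% DMSO final) in HEPES/HBSS buffer with 50 mM LiCl and 0.1% BSA, pH 7.4, 1 h at 37 °C. IP1 accumulation read by HTRF competition (665/620 nm); EC50 from 4-parameter sigmoidal fit.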
(In general: In TR-FRET formats the signal depends on donor and acceptor labels being close together.)

The target in assay [2] is T2, human NMUR2 receptor (Homo sapiens, UniProt Q9GZQ4). Nature of the assay: Radioligand binding competition assay (RLB), human NMUR2 receptor binding (SPA, [125I]-Neuromedin U-25). On the set-up: host or cells: CHO-K1. The conditions noted are these: CHO-K1 hNMUR2 cell membranes, 4 hours at RT. The source says:
Example 1: Radioligand Binding Competition Assay (RLB) Human NMUR2 Receptor Binding
The test is based on membranes prepared from a Human NMUR2/Apoaequorin Stable Cell Line (Creative Biogene, Cat. No. CSC-RG1309).
Cell Line Description: CHO-NMUR2 cell line is clonally derived from a CHO-K1 cell line, which has been transfected with a bicistronic expression plasmid containing the sequence coding for the human neuromedin U receptor 2 (AF242874.1). MOSAIC-ID: CL16550616.
Membrane preparation: Cells were broken by nitrogen cavitation (900 psi, 1 hour). Intact cells were removed by centrifugation (400 rcf (relative centrifugal force), 10 minutes, 4° C.) before the crude membrane fraction was collected by ultracentrifugation (20.000 rcf, 1 hour, 4° C.).
2) Human NMUR2 Receptor Binding Assay (Radioligand: [125I]-Neuromedin U-25 (Human))
In this Scintillation Proximity Assay (SPA) design, the membranes immobilize directly to the PVT-WGA-PEI type A beads (polyethyleneimine treated polyvinyltoluene beads coupled to wheatgerm agglutinin, Perkin Elmer) via interactions of wheat germ agglutinate and glycosylated membrane structures. Thereby the radioactively la-belled ligand, bound to NMUR2 receptors on the membrane, comes in close proximity to the solid scintillator of the PVT bead. Radioactive human neuromedin U-25 then stimulates the scintillant to emit light. In contrast, radioligand not bound to the receptor is too distant from the bead to elicit a signal.
For the Scintillation Proximity Assay the CHO-K1 hNMUR2 cell membranes and SPA-beads are diluted to concentrations, which assure a robust signal to background ratio. The SPA incubation buffer consists of 25 mM Hepes (pH=7.0), 5 mM MgCl2, 1 mM CaCl2, 10 ug/mL Saponine and 0.1% bovine serum albumin and is used for all dilutions.
Final assay setup in 96-well plate: 20 μL of 10× test compound dilutions+40 μL of 5× [125l]-Neuromedin U-25 (1× approx. 30 pM; 2000 μCi/mmol)+60 μL membrane dilution (approx. 2.5 μg membrane protein)+80 μL SPA bead dilution (0.75 mg).
The assay is incubated for 4 hours at RT, including controls for specific binding where no displacer is added and non-specific binding by adding unlabeled hNMU-25 at 100 nM. Bound radioactivity is determined by scintillation counting (MicroBeta Trilux 1450, Perkin Elmer, detection of 125I decay). […] The system assumes one binding site with no relevant radioligand depletion (<10%) and that the binding is reversible and at equilibrium.

Assay [3] has as its target T2, human NMUR2 receptor. Nature of the assay: IP1 Gq HTRF assay, activation of human NMUR2 in buffer. On the set-up: expressed in transfected cells; host or cells: CHO-K1. It is filed as cell-based. To be noted: for EC50: CHO-K1 cells expressing human NMUR2, stimulation buffer with 0.1% BSA, read-out: EC50 (hNMUR2) buffer; for EC50 (hNMUR1)/EC50 (hNMUR2): selectivity for NMUR2 over NMUR1 from IP1 assay in buffer (Example 3). Put shortly:
as §1

Results on six compounds are retold here after patent publication US20240279278A1, “NMU RECEPTOR 2 AGONISTS” (Boehringer Ingelheim International GmbH, priority 2023, published 2024).

Residues, ends and D or L forms follow the SMILES beside them.

T2 sequence (Q9GZQ4 whole entry): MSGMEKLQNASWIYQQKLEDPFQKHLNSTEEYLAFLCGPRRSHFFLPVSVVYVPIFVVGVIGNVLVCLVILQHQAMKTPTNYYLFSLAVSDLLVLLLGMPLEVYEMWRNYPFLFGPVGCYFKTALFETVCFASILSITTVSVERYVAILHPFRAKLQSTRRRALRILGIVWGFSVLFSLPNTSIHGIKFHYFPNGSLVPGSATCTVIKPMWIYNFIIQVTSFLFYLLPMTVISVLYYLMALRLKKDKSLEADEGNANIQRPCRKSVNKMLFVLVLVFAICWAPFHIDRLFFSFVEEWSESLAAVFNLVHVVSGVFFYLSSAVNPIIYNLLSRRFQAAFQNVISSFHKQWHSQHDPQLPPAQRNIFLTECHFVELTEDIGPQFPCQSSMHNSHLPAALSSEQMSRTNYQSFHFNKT

On to `CCCC[C@H](NC(=O)[C@H](CC(C)C)N(C)C(=O)[C@H](Cc1ccccc1)NC(=O)[C@H](Cc1ccc(O)cc1)NC(=O)CN1CCN(CCNC(=O)CN(C)C(=O)CN(C)C(=O)CN(C)C(=O)CN(C)C(=O)CN(C)C(=O)CN(C)C(=O)CN(C)C(=O)CN(C)C(=O)CN(C)C(=O)CN(C)C(=O)CN(C)C(=O)CN(C)C(=O)CN(C)C(=O)CN(C)C(=O)CN(C)C(=O)CC[C@H](NC(=O)CC[C@H](NC(=O)CC[C@H](NC(=O)CCCCCCCCCCCCCCCCCCC(=O)O)C(=O)O)C(=O)O)C(=O)O)CC1)C(=O)N[C@@H](CCCN)C(=O)N1CCC[C@H]1C(=O)N[C@@H](CCCNC(=N)N)C(=O)NCC(N)=O` [Compound 1, C20DA-gGlu3-Sar15-AEPipAc-Tyr-Phe-NMeLeu-Nle-Orn-Pro-Arg-Gly-NH2] (HELM PEPTIDE1{[O=C(O)CCCCCCCCCCCCCCCCCCC(=O)[*:2]].[gGlu].[gGlu].[gGlu].[Sar].[Sar].[Sar].[Sar].[Sar].[Sar].[Sar].[Sar].[Sar].[Sar].[Sar].[Sar].[Sar].[Sar].[Sar].[O=C(CN1CCN(CCN[*:1])CC1)[*:2]].Y.F.[meL].[Nle].[Orn].P.R.G.[am]}$$$$V2.0), for which the EC50 in assay [1] was determined as 890 nM; in assay [3], 1.4 nM. This compound also showed a Ki in assay [2] of 8.6 nM. For the same compound, the “EC50 (hNMUR1)/EC50 (hNMUR2)” value in assay [3] turned out to be 635.

Turning to `CCCC[C@H](NC(=O)[C@H](CC(C)C)N(C)C(=O)[C@H](Cc1ccccc1)NC(=O)[C@H](Cc1ccc(O)cc1)NC(=O)CN1CCN(CCNC(=O)CN(C)C(=O)CN(C)C(=O)CN(C)C(=O)CN(C)C(=O)CN(C)C(=O)CN(C)C(=O)CN(C)C(=O)CN(C)C(=O)CN(C)C(=O)CN(C)C(=O)CN(C)C(=O)CN(C)C(=O)CC[C@H](NC(=O)CC[C@H](NC(=O)CC[C@H](NC(=O)CCCCCCCCCCCCCCCCCCC(=O)O)C(=O)O)C(=O)O)C(=O)O)CC1)C(=O)N[C@@H](CCCNC(=N)N)C(=O)N1CCC[C@H]1C(=O)N[C@@H](CCCNC(=N)N)C(=O)NCC(N)=O` [Compound 6, C20DA-gGlu3-Sar12-AEPipAc-Tyr-Phe-NMeLeu-Nle-Arg-Pro-Arg-Gly-NH2], the EC50 in assay [1] was 120 nM; in assay [3] it was 2 nM. For the same compound, in assay [2], the Ki stood at 10.1 nM.

For `CCCC[C@H](NC(=O)[C@H](CC(C)C)N(C)C(=O)[C@H](Cc1ccccc1)NC(=O)[C@H](Cc1ccc(O)cc1)NC(=O)CN1CCN(CCNC(=O)CN(C)C(=O)CN(C)C(=O)CN(C)C(=O)CN(C)C(=O)CN(C)C(=O)CN(C)C(=O)CN(C)C(=O)CN(C)C(=O)CN(C)C(=O)CN(C)C(=O)CN(C)C(=O)CN(C)C(=O)CN(C)C(=O)CN(C)C(=O)CN(C)C(=O)CC[C@H](NC(=O)CC[C@H](NC(=O)CC[C@H](NC(=O)CCCCCCCCCCCCCCCCC(=O)O)C(=O)O)C(=O)O)C(=O)O)CC1)C(=O)N[C@@H](CCCNC(=N)N)C(=O)N1CCC[C@H]1C(=O)N[C@@H](CCCNC(=N)N)C(=O)NCC(N)=O` [Compound 7, C18DA-gGlu3-Sar15-AEPipAc-Tyr-Phe-NMeLeu-Nle-Arg-Pro-Arg-Gly-NH2] (HELM PEPTIDE1{[O=C(O)CCCCCCCCCCCCCCCCC(=O)[*:2]].[gGlu].[gGlu].[gGlu].[Sar].[Sar].[Sar].[Sar].[Sar].[Sar].[Sar].[Sar].[Sar].[Sar].[Sar].[Sar].[Sar].[Sar].[Sar].[O=C(CN1CCN(CCN[*:1])CC1)[*:2]].Y.F.[meL].[Nle].R.P.R.G.[am]}$$$$V2.0), the EC50 amounted to 250 nM in assay [1] and 1.2 nM in assay [3]. The same compound yielded a Ki in assay [2] of 22.8 nM. In assay [3], the “EC50 (hNMUR1)/EC50 (hNMUR2)” value turned out to be 208.

On to `CCCC[C@H](NC(=O)[C@H](CC(C)C)N(C)C(=O)[C@H](Cc1ccccc1)NC(=O)[C@H](Cc1ccc(O)cc1)NC(=O)CN1CCN(CCNC(=O)CN(C)C(=O)CN(C)C(=O)CN(C)C(=O)CN(C)C(=O)CN(C)C(=O)CN(C)C(=O)CN(C)C(=O)CN(C)C(=O)CN(C)C(=O)CN(C)C(=O)CN(C)C(=O)CN(C)C(=O)CC[C@H](NC(=O)CC[C@H](NC(=O)CC[C@H](NC(=O)CCCCCCCCCCCCCCCCCCC(=O)O)C(=O)O)C(=O)O)C(=O)O)CC1)C(=O)N[C@@H](CCN)C(=O)N1CCC[C@H]1C(=O)N[C@@H](CCCNC(=N)N)C(=O)NCC(N)=O` [Compound 8, C20DA-gGlu3-Sar12-AEPipAc-Tyr-Phe-NMeLeu-Nle-Dbu-Pro-Arg-Gly-NH2], for which the EC50 in assay [1] stood at 1000 nM; in assay [3], 3.1 nM. In assay [2], this compound displayed a Ki of 89.1 nM.

As to `CCCC[C@H](NC(=O)[C@H](CC(C)C)N(C)C(=O)[C@H](Cc1ccccc1)NC(=O)[C@H](Cc1ccc(O)cc1)NC(=O)CN1CCN(CCNC(=O)CN(C)C(=O)CN(C)C(=O)CN(C)C(=O)CN(C)C(=O)CN(C)C(=O)CN(C)C(=O)CN(C)C(=O)CN(C)C(=O)CN(C)C(=O)CN(C)C(=O)CN(C)C(=O)CN(C)C(=O)CN(C)C(=O)CN(C)C(=O)CN(C)C(=O)CC[C@H](NC(=O)CC[C@H](NC(=O)CC[C@H](NC(=O)CCCCCCCCCCCCCCCCCCC(=O)O)C(=O)O)C(=O)O)C(=O)O)CC1)C(=O)N[C@@H](CCCNC(=N)N)C(=O)N1CCC[C@H]1C(=O)N[C@@H](CCCNC(=N)N)C(=O)NCC(N)=O` [Compound 9, C20DA-gGlu3-Sar15-AEPipAc-Tyr-Phe-NMeLeu-Nle-Arg-Pro-Arg-Gly-NH2] (HELM PEPTIDE1{[O=C(O)CCCCCCCCCCCCCCCCCCC(=O)[*:2]].[gGlu].[gGlu].[gGlu].[Sar].[Sar].[Sar].[Sar].[Sar].[Sar].[Sar].[Sar].[Sar].[Sar].[Sar].[Sar].[Sar].[Sar].[Sar].[O=C(CN1CCN(CCN[*:1])CC1)[*:2]].Y.F.[meL].[Nle].R.P.R.G.[am]}$$$$V2.0), the EC50 in assay [1] came out at 220 nM; in assay [3] it was 2.8 nM. Also, affinity in assay [2] was put at a Ki of 58.3 nM.

On to `CCCC[C@H](NC(=O)[C@H](CC(C)C)N(C)C(=O)[C@H](Cc1ccccc1)NC(=O)[C@H](Cc1ccc(O)cc1)NC(=O)CN1CCN(CCNC(=O)CN(C)C(=O)CN(C)C(=O)CN(C)C(=O)CN(C)C(=O)CN(C)C(=O)CN(C)C(=O)CN(C)C(=O)CN(C)C(=O)CN(C)C(=O)CN(C)C(=O)CN(C)C(=O)CN(C)C(=O)CN(C)C(=O)CN(C)C(=O)CN(C)C(=O)CC[C@H](NC(=O)CC[C@H](NC(=O)CC[C@H](NC(=O)CCCCCCCCCCCCCCCCCCC(=O)O)C(=O)O)C(=O)O)C(=O)O)CC1)C(=O)N[C@@H](CCCNC(=N)N)C(=O)N(C)[C@@H](C)C(=O)N[C@@H](CCCNC(=N)N)C(=O)NCC(N)=O` [Compound 10, C20DA-gGlu3-Sar15-AEPipAc-Tyr-Phe-NMeLeu-Nle-Arg-NMeAla-Arg-Gly-NH2] (HELM PEPTIDE1{[O=C(O)CCCCCCCCCCCCCCCCCCC(=O)[*:2]].[gGlu].[gGlu].[gGlu].[Sar].[Sar].[Sar].[Sar].[Sar].[Sar].[Sar].[Sar].[Sar].[Sar].[Sar].[Sar].[Sar].[Sar].[Sar].[O=C(CN1CCN(CCN[*:1])CC1)[*:2]].Y.F.[meL].[Nle].R.[meA].R.G.[am]}$$$$V2.0), for which the results for the EC50 in assay [1] and in assay [3] were 720 nM and 4.1 nM, respectively. The affinity in assay [2] corresponds to a Ki of 204 nM.

For orientation: EC50 means the concentration at which the effect is half-maximal. For orientation: Ki means the equilibrium dissociation constant of an inhibitor or competing ligand from its target. A low value points to a stronger hold on the target.
